Among the data in ChEMBL document CHEMBL4118254, “1,2-Diphenoxiethane salts as potent antiplasmodial agents” (Bioorg Med Chem Lett, 2018) are IC50 values, retold here.

In test [1] the test system is Plasmodium falciparum. The experiment in a line: Antiplasmodial activity against Plasmodium falciparum 3D7 infected in human erythrocytes after 72 hrs by SYBR green 1-based fluorimetric assay. The format is functional, organism-based. To be noted: 3D7, 72 h.
Test [2] deals with Choline kinase alpha (Homo sapiens, UniProt P35790). Nature of the test: Inhibition of human choline kinase alpha1 using [methyl-14C]choline as substrate assessed as reduction in rate of incorporation of 14C from [methyl-14C]choline into phosphocholine preincubated for 5 mins followed by substrate addition measured after 10 mins by scintillation counting.
The nature of test [3]: Inhibition of Plasmodium falciparum choline kinase using [methyl-14C]choline as substrate assessed as reduction in rate of incorporation of 14C from [methyl-14C]choline into phosphocholine preincubated for 5 mins followed by substrate addition measured after 10 mins by liquid scintillation counter.
In test [4] the test system is Plasmodium falciparum. Nature of the test: Antiplasmodial activity against Plasmodium falciparum Dd2 infected in human erythrocytes after 48 hrs by picogreen-microfluorimetric assay. To be noted: Dd2, 48 h. The format is functional, organism-based.
In test [5] the target is T1, Choline kinase (Plasmodium falciparum (isolate 3D7), UniProt Q8IM71).
T1 sequence (Q8IM71 whole entry): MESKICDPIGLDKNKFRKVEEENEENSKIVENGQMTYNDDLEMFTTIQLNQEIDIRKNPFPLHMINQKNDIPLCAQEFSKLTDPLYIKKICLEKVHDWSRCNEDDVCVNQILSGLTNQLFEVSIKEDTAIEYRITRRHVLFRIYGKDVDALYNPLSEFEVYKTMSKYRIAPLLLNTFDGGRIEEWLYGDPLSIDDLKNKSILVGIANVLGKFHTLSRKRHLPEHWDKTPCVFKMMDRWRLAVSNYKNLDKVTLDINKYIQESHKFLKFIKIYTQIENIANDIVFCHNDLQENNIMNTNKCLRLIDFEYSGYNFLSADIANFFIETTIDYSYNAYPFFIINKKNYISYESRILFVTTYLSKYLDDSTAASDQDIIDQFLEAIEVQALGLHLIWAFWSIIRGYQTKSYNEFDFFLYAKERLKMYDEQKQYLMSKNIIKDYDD
The experiment in a line: Inhibition of Plasmodium falciparum 3D7 choline kinase expressed in Escherichia coli BL21(DE3) assessed as reduction in phosphocholine formation.

Test [6] in a line: Inhibition of Plasmodium falciparum choline kinase using [1-14C]ethanolamine as substrate assessed as reduction in rate of incorporation of […] preincubated for 5 mins followed by substrate addition measured after 10 mins by liquid scintillation counter.

Choline kinase alpha, sequence (P35790 whole entry): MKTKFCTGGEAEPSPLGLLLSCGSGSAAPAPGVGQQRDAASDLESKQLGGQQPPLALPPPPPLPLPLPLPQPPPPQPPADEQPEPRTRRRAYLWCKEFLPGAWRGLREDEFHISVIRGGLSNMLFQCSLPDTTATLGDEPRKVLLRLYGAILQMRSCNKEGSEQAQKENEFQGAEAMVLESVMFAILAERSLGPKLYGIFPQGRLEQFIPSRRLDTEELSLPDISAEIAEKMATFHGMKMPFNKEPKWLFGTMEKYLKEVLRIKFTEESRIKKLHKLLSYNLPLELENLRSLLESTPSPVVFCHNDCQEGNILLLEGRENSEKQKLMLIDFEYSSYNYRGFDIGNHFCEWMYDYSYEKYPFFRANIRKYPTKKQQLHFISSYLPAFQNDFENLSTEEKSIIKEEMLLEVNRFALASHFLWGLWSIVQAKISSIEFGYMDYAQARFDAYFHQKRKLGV

In general, IC50 refers to the concentration that gives 50% inhibition. `OC1C[N+]2(Cc3ccc(OCCOc4ccc(C[N+]56CCC(CC5)C(O)C6)cc4)cc3)CCC1CC2` (stereo not given) came in with an IC50 in test [1] of 1690 nM.

In turn, `CN(c1ccccc1)c1cc[n+](Cc2ccc(OCCOc3ccc(C[n+]4ccc(N(C)c5ccccc5)c5ccc(Cl)cc54)cc3)cc2)c2cc(Cl)ccc12` registered an IC50 in test [1] of 177 nM.

As to `CN(C)c1cc[n+](Cc2ccc(CCCCc3ccc(C[n+]4ccc(N(C)C)cc4)cc3)cc2)cc1`, the IC50 is 780 nM in test [2]; 106000 nM in test [3]; 3.5 nM in test [4]; 106000 nM in test [5]; 3.5 nM in test [1].

As to `CN(C)c1cc[n+](Cc2ccc(-c3ccc(C[n+]4ccc(N5CCCC5)cc4)cc3)cc2)cc1`, the results for the IC50 in test [3] and in test [6] (read-out: IC50) were 276000 nM and 12000 nM, respectively.

For `CN(c1ccc(Cl)cc1)c1cc[n+](Cc2ccc(-c3ccc(C[n+]4ccc(N(C)c5ccc(Cl)cc5)c5ccccc54)cc3)cc2)c2ccccc12` [RSM-932A], the IC50 in test [3] turned out to be 1750 nM; in test [4], 26.5 nM; in test [5], 1750 nM; in test [1] it was 26.5 nM.

Consider `CN(C)c1cc[n+](Cc2ccc(CCCCc3ccc(C[n+]4ccc(N5CCCC5)cc4)cc3)cc2)cc1`, for which the IC50 came to 103000 nM in test [3], 6000 nM in test [6] (read-out: IC50) and 3 nM in test [1].

Take `c1cc(OCCOc2ccc(C[N+]34CCC(CC3)CC4)cc2)ccc1C[N+]12CCC(CC1)CC2`: the IC50 in test [1] worked out at 177 nM.

In the case of `CN(c1ccc(Cl)cc1)c1cc[n+](Cc2ccc(OCCOc3ccc(C[n+]4ccc(N(C)c5ccc(Cl)cc5)c5ccccc54)cc3)cc2)c2ccccc12`, the IC50 in test [3] is 2520 nM; in test [1], 149 nM.

On to `CN(C)c1cc[n+](Cc2ccc(OCCOc3ccc(C[n+]4ccc(N(C)C)cc4)cc3)cc2)cc1.[Br-].[Br-]`, for which the IC50 in test [3] is at least 100000 nM; in test [6] it was “Not Active”; in test [1], 16 nM.

`CN(c1ccc(Cl)cc1)c1cc[n+](Cc2ccc(OCCOc3ccc(C[n+]4ccc(N(C)c5ccc(Cl)cc5)c5ccc(Cl)cc54)cc3)cc2)c2cc(Cl)ccc12`: the IC50 in test [3] stood at 6470 nM; in test [1], 369 nM.

For the compound `[Br-].[Br-].c1cc(OCCOc2ccc(C[n+]3ccc(N4CCCC4)cc3)cc2)ccc1C[n+]1ccc(N2CCCC2)cc1`, the IC50 in test [3] was 50000 nM; in test [6], “Not Active”; in test [1], 16 nM.

Regarding `c1ccc2c(c1)c(N1CCCCCC1)cc[n+]2Cc1ccc(OCCOc2ccc(C[n+]3ccc(N4CCCCCC4)c4ccccc43)cc2)cc1`, the IC50 in test [3] is 2360 nM; in test [6] (read-out: IC50), over 15000 nM; in test [1], 142 nM.

`Clc1ccc2c(N3CCCC3)cc[n+](Cc3ccc(OCCOc4ccc(C[n+]5ccc(N6CCCC6)c6ccc(Cl)cc65)cc4)cc3)c2c1`: the IC50 in test [3] was 14100 nM; in test [1], 59 nM.

In the case of `CN(c1ccccc1)c1cc[n+](Cc2ccc(OCCOc3ccc(C[n+]4ccc(N(C)c5ccccc5)c5ccccc54)cc3)cc2)c2ccccc12`, in test [1], the IC50 was found to be 162 nM.

For the compound `C[N+]1(C)CCOC(O)(c2ccc(-c3ccc(C4(O)C[N+](C)(C)CCO4)cc3)cc2)C1` (stereo not given) [HEMICHOLINIUM-3], the IC50 is 250000 nM in test [3], over 50000 nM in test [4], 250000 nM in test [5] and over 50000 nM in test [1].

With `Clc1ccc2c(N3CCCCCC3)cc[n+](Cc3ccc(OCCOc4ccc(C[n+]5ccc(N6CCCCCC6)c6ccc(Cl)cc65)cc4)cc3)c2c1`, the IC50 in test [3] was 10900 nM; in test [6] (read-out: IC50) it was over 50000 nM; in test [1] it was 35 nM.
